Test results taken from patent US8586098B2, “Loading of hydrophobic drugs into hydrophilic polymer delivery systems” (Biocompatibles UK Limited, priority 2006, dated 2013).
In brackets after ≈: the same amount, converted by molar mass. Where two headings read alike, the source gives them in different places.

How the values were obtained:
[1] = solubility in water at room temperature; type: physicochemical; details: for Sol^y in water: room temperature
Source text: For these compounds the following table gives comparison water and solvent solubilities at room temperature.

[2] = solubility in DMSO at room temperature; type: physicochemical; details: for Sol^y in DMSO / Sol^y Ratio: room temperature; for Sol^y Ratio: solubility in solvent (DMSO):solubility in water
Source text: For these compounds the following table gives comparison water and solvent solubilities at room temperature. […]

[3] = background description; cited from earlier work
[4] = background description; cited from earlier work; remark: listed apart in the source
[5] = benzyl alcohol, chloroform, acetone, acetonitrile; cited from earlier work

Which “Sol^y in water” value [1] does the source give for `CC[C@@]1(O)C(=O)OCc2c1cc1n(c2=O)Cc2cc3ccccc3nc2-1` [Camptothecin] here?
Its value is “insol (insoluble means less than 10 mg/l)”.

What about the Sol^y in DMSO [2] of the same compound?
Its Sol^y in DMSO is 10 g/L.

What about the “Sol^y Ratio” value [2] of the same compound?
The value was >10^3.

Which “solubility in water (in words)” value ([1]; Example 3) does the source give for `C[C@@H]1C[C@H]2[C@@H]3CCC4=CC(=O)C=C[C@]4(C)[C@@]3(F)[C@@H](O)C[C@]2(C)[C@@]1(O)C(=O)CO` [Dexamethasone] here?
The value was “practically insoluble in water”.

What about the “Sol^y in water” value [1] of the same compound?
Its value is “insol (insoluble means less than 10 mg/l)”.

What about the solubility ([2]; DMSO, organic solvent or mixture, room temp, Example 3) of the same compound?
The solubility was about 60 mg/mL (≈ 153 mM).

What about the Sol^y in DMSO [2] of the same compound?
Its Sol^y in DMSO is 600 g/L.

And the “Sol^y Ratio” value [2]?
Its value is >10^5.

For `CN(Cc1cnc2nc(N)nc(N)c2n1)c1ccc(C(=O)N[C@@H](CCC(=O)O)C(=O)O)cc1` [Methotrexate], which “Sol^y in water” value [1] is on record?
The value was “insol (insoluble means less than 10 mg/l)”.

And the Sol^y in DMSO [2]?
Its Sol^y in DMSO is 200 g/L.

And the “Sol^y Ratio” value [2]?
The value was >5 × 10^4.

For `CC(=O)O[C@H]1C(=O)[C@@]2(C)[C@H]([C@H](OC(=O)c3ccccc3)[C@]3(O)C[C@H](OC(=O)[C@H](O)[C@@H](NC(=O)c4ccccc4)c4ccccc4)C(C)=C1C3(C)C)[C@]1(OC(C)=O)CO[C@@H]1C[C@@H]2O` [Paclitaxel, 5β,20-Epoxy-1,2α,4,7β,10β,13α-hexahydroxytax-11-en-9-one 4,10-diacetate-2-benzoate 13-ester with (2R,3S)—N-benzoyl-3-phenylisoserine], which “Sol^y in water” value [1] is on record?
Its value is 0.3 to 30 mg/L.

What about the “solubility in water (in words)” value [3] of the same compound?
The value was “insoluble in water”.

What about the “lipophilicity (in words)” value [4] of the same compound?
The value was “highly lipophilic”.

What about the Sol^y in DMSO [2] of the same compound?
Its Sol^y in DMSO is 50 g/L.

Which results are given for `CO[C@H]1C[C@@H]2CC[C@@H](C)[C@@](O)(O2)C(=O)C(=O)N2CCCC[C@H]2C(=O)O[C@H]([C@H](C)C[C@@H]2CC[C@@H](O)[C@H](OC)C2)CC(=O)[C@H](C)/C=C(\C)[C@@H](O)[C@@H](OC)C(=O)[C@H](C)C[C@H](C)/C=C/C=C/C=C/1C` [Rapamycin]?
Sol^y in water [1]: 0.69 mg/L; solubility in water (in words) [3]: insoluble in water; solubility in organic solvents (in words) [5]: freely soluble in benzyl alcohol, chloroform, acetone, and acetonitrile; Sol^y in DMSO [2]: 25 g/L; Sol^y Ratio [2]: >4 × 10^4
